# From US9623039B2, “Treatment and prevention of pathological conditions using iduna related techniques and compositions” (VALTED, LLC, priority 2010, dated 2017)
# Where a SMILES comes first, the peptide text is derived from it. The star is where a group is joined. Cbz = O=C(OCc1ccccc1)*; CH2F = FC*
# Key:
# MCF7 cells = test: Laser micro-irradiation-induced DNA damage, recruitment of GFP-Iduna; format: cell-based, human; settings: 405 nm laser microirradiation
# Method: Live-cell imaging and Laser micro-irradiation-induced DNA damage: For induction of localized DNA damage, MCF 7 cells stably expressing GFP-Iduna or GFP-Iduna-YRAA were plated onto 25 mm glass bottom culture dishes for 48 h. Cells were presensitized with 10 μM 5-bromo-2′-deoxyuridine (BrdU, Sigma) for 24 h. Cells were incubated with 2 μM Hoechst (Invitrogen) for 5 min and mounted on a preheated (37° C.) stage on a Zeiss LSM 710 confocal microscope equipped with 405 nm laser source. A laser microbeam was focused on a small rectangular strip of nucleus through 63× oil objective to induce localized DNA damage. The laser setting was set to 100% power output with a scanning speed of 1 and 6-10 laser iterations. The kinetics were calculated using Zeiss Zen 2010 software. Time point before irradiation represents—1 min and the time point just after irradiation represent 0 min. Each data series was normalized with respect to base line data intensity values.
# PARP-1 = target: T1, PARP-1 (Homo sapiens, UniProt P09874); test: Chemiluminescent PARP assay (biotinylated PAR onto histone); format: biochemical; settings: incorporation of biotinylated PAR onto histone proteins
# T1 construct: purchased Trevigen
# Method: Because PARP-1 activation plays a prominent role in NMDA excitotoxicity we tested whether PARP-1 activity is directly affected by Iduna. PARP-1 activity was assessed by incorporation of biotinylated PAR onto histone proteins.
# Chemiluminescent PARP assay for poly(ADP-ribosyl)ation of Histone H1: Activity of PARP-1 was determined by Trevigen Universal chemiluminescent PARP assay kit (Trevigen, Gaithersburg, Md., USA) in the presence of Iduna or the PARP-1 inhibitor 3-aminobenzamide (3-AB). According to manufacturer's instructions, the incorporation of biotinylated NAD+ (Trevigen) into the poly(ADP-ribose) polymer primed at solid phase immobilized histone H1 (Trevigen) was detected by the chemiluminescent assay, either in the presence or absence of recombinant Iduna. Reactions were performed with 34 μM total biotinylated NAD+ for 60 min at 25° C. in triplicates. Chemiluminescence was measured using a fluorescence multi-well plate reader (SOSTmax, Sunnyvale, Calif.) with an excitation at 544 nm excitation/590 nm emission. In the parallel wells, PARP1 activity was measured after the 3-aminobenzamide treatment at the same concentration of biotinylated NAD+ (34 μM).
# neuronal cultures = test: Caspase-dependent cell death (camptothecin, staurosporine) in neuronal cultures; format: cell-based, mouse; settings: for protection against cell death: 24 h
# Method: (§1) FIG. 42—Neuronal cultures expressing lenti-viral mediated GFP, GFP-Iduna or GFP-Iduna-YRAA were treated with camptothecin (CPT, 20 μM) and cell death assessed 24 h later using PI and Hoechst staining. […] Data represent the mean±SEM, n=4 of two independent experiments. *p<0.05 by ANOVA with Tukey-Kramer's posthoc test.
# as §1, with “43—Neuronal” for “42—Neuronal”, “staurosporine (STS, 500 nM)” for “camptothecin (CPT, 20 μM)”
# (§2) Cell Death Assessment: Following exposure of neuronal cultures to the various treatments neuronal survival was quantified and presented as percent of cell death. Percent cell death was determined as the ratio of live-to-dead cells compared with the percent cell death in control wells to account for cell death attributable to mechanical stimulation of the cultures. Quantification of neuronal survival was determined by staining treated cultures with 5 μM Hoechst 33342 and 2 μM propidium iodide (PI) (Invitrogen, Carlsbad, Calif.). Culture plates were placed on a mechanized stage of a Zeiss microscope and photomicrographs were collected by a blinded observer. The numbers of total and dead (PI positive) cells were counted by automated computer assisted software (Axiovision 4.6, Zeiss, Germany). The raw counts are presented in an Excel file for generation of percent cell death and statistical analysis. Glial nuclei fluoresce at a lower intensity than neuronal nuclei and were gated out by the software program. At least two separate experiments using four separate wells were performed for all data points.
# PAR polymer = PAR polymer overlay / dot blot (far western); format: binding; settings: PAR polymer overlay assay
# Source text: PAR binding is specified by a sequence of approximately 20 amino acids containing N-terminal basic amino acids and a C-terminal region containing alternating hydrophobic and basic amino acids (FIG. 24). Iduna contains a predicted PAR polymer binding sequence within amino acids 144-167 of the WWE domain (FIGS. 1 and 24). The PAR-binding domain was defined by comparing to the consensus sequence for PAR-binding and the known PAR binding domain of Histone 3 (FIG. 24). HEK293 cells were transfected with GFP, GFP-Iduna lacking the WWE domain (GFP-IdunaΔWWE), GFP-Iduna lacking the RF domain (GFP-IdunaARF), and full-length GFP-Iduna, followed by immunoprecipitation with a GFP antibody. […] Only GFP-Iduna-ARF and full-length GFP-Iduna can co-immunoprecipiate PAR binding proteins (FIG. 25). The critical amino acids in the PAR binding domain, 156Y and 157R, were mutated to 156A and 157A in full length Iduna (Iduna-YRAA). […] Similar results are obtained with a biotin-tagged PAR polymer followed by detection with an anti-biotin antibody (FIG. 26). […] Histone H3 is a known PAR binding protein and was used as a positive control for the PAR overlay assay. […] An assay based on electrophorectic mobility shift (EMSA) for PAR binding was developed to monitor PAR polymer binding to Iduna. […]
# primary neurons = test: H2O2-induced cell death in primary neurons; format: cell-based, mouse
# Method: FIGS. 44 and 45—Iduna protects against peroxide-induced cell death in primary neurons. Primary neuronal cultures were transduced with lentiviruses expressing GFP, GFP-Iduna or GFP-Iduna-YRAA. 4 days following lentiviral transduction, cultures were treated with H2O2 (100 μM or 500 μM) and cell death assessed 24 h later using PI and Hoechst staining.
# as §2, with “At least two separate experiments using four separate wells were performed for all data points.” left out
# T1 sequence (P09874 whole entry): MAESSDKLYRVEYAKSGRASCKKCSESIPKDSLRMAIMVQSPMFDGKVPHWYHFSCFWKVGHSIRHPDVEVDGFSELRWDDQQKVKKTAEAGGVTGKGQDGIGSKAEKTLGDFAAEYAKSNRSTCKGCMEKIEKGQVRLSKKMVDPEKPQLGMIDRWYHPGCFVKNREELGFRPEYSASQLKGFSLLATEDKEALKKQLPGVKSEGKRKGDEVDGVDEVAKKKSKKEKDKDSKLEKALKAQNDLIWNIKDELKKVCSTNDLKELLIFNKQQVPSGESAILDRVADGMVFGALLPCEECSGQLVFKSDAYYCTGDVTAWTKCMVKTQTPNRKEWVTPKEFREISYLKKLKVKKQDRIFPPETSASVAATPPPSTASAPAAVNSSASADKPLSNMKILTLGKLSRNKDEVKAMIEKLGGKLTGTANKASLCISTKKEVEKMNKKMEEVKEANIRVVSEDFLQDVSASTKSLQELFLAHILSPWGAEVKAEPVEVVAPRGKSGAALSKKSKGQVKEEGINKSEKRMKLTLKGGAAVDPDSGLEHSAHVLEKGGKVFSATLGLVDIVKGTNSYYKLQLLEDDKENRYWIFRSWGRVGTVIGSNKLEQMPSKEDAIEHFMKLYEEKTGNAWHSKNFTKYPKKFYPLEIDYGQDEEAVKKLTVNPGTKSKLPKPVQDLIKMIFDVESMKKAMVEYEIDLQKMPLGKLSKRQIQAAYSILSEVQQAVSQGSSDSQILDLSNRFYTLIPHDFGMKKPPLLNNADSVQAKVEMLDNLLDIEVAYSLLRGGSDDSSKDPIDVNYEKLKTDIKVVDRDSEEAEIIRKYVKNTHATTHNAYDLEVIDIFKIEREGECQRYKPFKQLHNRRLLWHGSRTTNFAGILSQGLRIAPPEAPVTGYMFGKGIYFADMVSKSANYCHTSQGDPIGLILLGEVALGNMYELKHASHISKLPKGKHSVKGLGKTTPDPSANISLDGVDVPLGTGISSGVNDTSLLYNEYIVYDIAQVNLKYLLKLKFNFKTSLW
molecule,measurement,setting,value
CN(C)Cc1ccc(-c2nc3cccc4c3n2CCNC4=O)cc1 [AG14361],recruitment of GFP-Iduna to laser-induced DNA breaks,MCF7 cells,blocks the translocation of Iduna
"NC(=O)c1cccc(N)c1 [3-AB, 3-aminobenzamide, reference compound]",PARP-1 activity,PARP-1,inhibits PARP-1 activity
COC(=O)C[C@H](NC(=O)[C@H](C)NC(=O)[C@@H](NC(=O)OCc1ccccc1)C(C)C)C(=O)CF [z-VAD fmk] (Cbz-Val-Ala-Asp(OMe)-CH2F),protection against cell death,neuronal cultures; camptothecin 20 μM,provides protection
same,apoptotic cell death,neuronal cultures; staurosporine 500 nM or camptothecin 20 μM,inhibited cell death
same,protection against cell death,neuronal cultures; staurosporine 500 nM,provides protection
"Iduna 144-167: synthesized peptide fragment of the predicted PAR polymer binding sequence, amino acids 144-167 of the WWE domain (LYVADLENMVQYRRNEHGRRRKIK; UniProt Q9NTX7 144-167, looked up, fragment)",PAR polymer binding,PAR polymer,binds to PAR polymer in a manner comparable to full-length Iduna
O=C1NCCc2c(OCCCCN3CCCCC3)cccc21 [DPQ],protection against H2O2 toxicity,primary neurons; 100 μM H2O2,only protected against 100 μM H2O2 toxicity
same,protection against H2O2 toxicity,primary neurons; 500 μM H2O2,Neither GFP-Iduna nor DPQ protect
